{"source": "paper PMC11446596", "about": "(Critical Care Explorations, 2024)", "key": {"[1]": {"parameters": "species or system human", "conditions": "for Trough Vancomycin Concentration achieving AUC24/MIC = 400: regression equation"}, "[2]": {"conditions": "critically ill children; cited from earlier work"}, "[3]": {"conditions": "median / average of model-predicted half-life; PICU children"}, "[4]": {"conditions": "AUC24 regression equation, 365 troughs, 238 subjects"}}, "note": "Where two headings read alike, the source gives them in different places."}
{"smiles": "CN[C@H](CC(C)C)C(=O)N[C@H]1C(=O)N[C@@H](CC(N)=O)C(=O)N[C@H]2C(=O)N[C@H]3C(=O)N[C@H](C(=O)N[C@H](C(=O)O)c4cc(O)cc(O)c4-c4cc3ccc4O)[C@H](O)c3ccc(c(Cl)c3)Oc3cc2cc(c3O[C@@H]2O[C@H](CO)[C@@H](O)[C@H](O)[C@H]2O[C@H]2C[C@](C)(N)[C@H](O)[C@H](C)O2)Oc2ccc(cc2Cl)[C@H]1O", "note": "[vancomycin]", "values": [{"measurement": "Trough Vancomycin Concentration achieving AUC24/MIC = 400", "setting": "[1]; 15 mg/kg q6h, body weight 10 kg, MIC = 0.5 μg/mL", "value": 1.8, "unit": "µg/mL"}, {"measurement": "Trough Vancomycin Concentration achieving AUC24/MIC = 400", "setting": "[1]; 15 mg/kg q6h, body weight 10 kg, MIC = 1 μg/mL", "value": 7.4, "unit": "µg/mL"}, {"measurement": "Trough Vancomycin Concentration achieving AUC24/MIC = 400", "setting": "[1]; 15 mg/kg q6h, body weight 10 kg, MIC = 2 μg/mL", "value": 29.9, "unit": "µg/mL"}, {"measurement": "Trough Vancomycin Concentration achieving AUC24/MIC = 400", "setting": "[1]; 15 mg/kg q6h, body weight 20 kg, MIC = 0.5 μg/mL", "value": 1.7, "unit": "µg/mL"}, {"measurement": "Trough Vancomycin Concentration achieving AUC24/MIC = 400", "setting": "[1]; 15 mg/kg q6h, body weight 20 kg, MIC = 1 μg/mL", "value": 6.9, "unit": "µg/mL"}, {"measurement": "Trough Vancomycin Concentration achieving AUC24/MIC = 400", "setting": "[1]; 15 mg/kg q6h, body weight 20 kg, MIC = 2 μg/mL", "value": 28.0, "unit": "µg/mL"}, {"measurement": "Trough Vancomycin Concentration achieving AUC24/MIC = 400", "setting": "[1]; 15 mg/kg q6h, body weight 40 kg, MIC = 0.5 μg/mL", "value": 1.5, "unit": "µg/mL"}, {"measurement": "Trough Vancomycin Concentration achieving AUC24/MIC = 400", "setting": "[1]; 15 mg/kg q6h, body weight 40 kg, MIC = 1 μg/mL", "value": 6.1, "unit": "µg/mL"}, {"measurement": "Trough Vancomycin Concentration achieving AUC24/MIC = 400", "setting": "[1]; 15 mg/kg q6h, body weight 40 kg, MIC = 2 μg/mL", "value": 24.6, "unit": "µg/mL"}, {"measurement": "Trough Vancomycin Concentration achieving AUC24/MIC = 400", "setting": "[1]; 15 mg/kg q8h, body weight 10 kg, MIC = 0.5 μg/mL", "value": 2.5, "unit": "µg/mL"}, {"measurement": "Trough Vancomycin Concentration achieving AUC24/MIC = 400", "setting": "[1]; 15 mg/kg q8h, body weight 10 kg, MIC = 1 μg/mL", "value": 10.0, "unit": "µg/mL"}, {"measurement": "Trough Vancomycin Concentration achieving AUC24/MIC = 400", "setting": "[1]; 15 mg/kg q8h, body weight 10 kg, MIC = 2 μg/mL", "value": 40.7, "unit": "µg/mL"}, {"measurement": "Trough Vancomycin Concentration achieving AUC24/MIC = 400", "setting": "[1]; 15 mg/kg q8h, body weight 20 kg, MIC = 0.5 μg/mL", "value": 2.3, "unit": "µg/mL"}, {"measurement": "Trough Vancomycin Concentration achieving AUC24/MIC = 400", "setting": "[1]; 15 mg/kg q8h, body weight 20 kg, MIC = 1 μg/mL", "value": 9.3, "unit": "µg/mL"}, {"measurement": "Trough Vancomycin Concentration achieving AUC24/MIC = 400", "setting": "[1]; 15 mg/kg q8h, body weight 20 kg, MIC = 2 μg/mL", "value": 37.6, "unit": "µg/mL"}, {"measurement": "Trough Vancomycin Concentration achieving AUC24/MIC = 400", "setting": "[1]; 15 mg/kg q8h, body weight 40 kg, MIC = 0.5 μg/mL", "value": 2.0, "unit": "µg/mL"}, {"measurement": "Trough Vancomycin Concentration achieving AUC24/MIC = 400", "setting": "[1]; 15 mg/kg q8h, body weight 40 kg, MIC = 1 μg/mL", "value": 8.0, "unit": "µg/mL"}, {"measurement": "Trough Vancomycin Concentration achieving AUC24/MIC = 400", "setting": "[1]; 15 mg/kg q8h, body weight 40 kg, MIC = 2 μg/mL", "value": 32.4, "unit": "µg/mL"}, {"measurement": "Trough Vancomycin Concentration achieving AUC24/MIC = 400", "setting": "[1]; 20 mg/kg q6h, body weight 10 kg, MIC = 0.5 μg/mL", "value": 1.8, "unit": "µg/mL"}, {"measurement": "Trough Vancomycin Concentration achieving AUC24/MIC = 400", "setting": "[1]; 20 mg/kg q6h, body weight 10 kg, MIC = 1 μg/mL", "value": 7.2, "unit": "µg/mL"}, {"measurement": "Trough Vancomycin Concentration achieving AUC24/MIC = 400", "setting": "[1]; 20 mg/kg q6h, body weight 10 kg, MIC = 2 μg/mL", "value": 29.3, "unit": "µg/mL"}, {"measurement": "Trough Vancomycin Concentration achieving AUC24/MIC = 400", "setting": "[1]; 20 mg/kg q6h, body weight 20 kg, MIC = 0.5 μg/mL", "value": 1.6, "unit": "µg/mL"}, {"measurement": "Trough Vancomycin Concentration achieving AUC24/MIC = 400", "setting": "[1]; 20 mg/kg q6h, body weight 20 kg, MIC = 1 μg/mL", "value": 6.6, "unit": "µg/mL"}, {"measurement": "Trough Vancomycin Concentration achieving AUC24/MIC = 400", "setting": "[1]; 20 mg/kg q6h, body weight 20 kg, MIC = 2 μg/mL", "value": 26.8, "unit": "µg/mL"}, {"measurement": "Trough Vancomycin Concentration achieving AUC24/MIC = 400", "setting": "[1]; 20 mg/kg q6h, body weight 40 kg, MIC = 0.5 μg/mL", "value": 1.4, "unit": "µg/mL"}, {"measurement": "Trough Vancomycin Concentration achieving AUC24/MIC = 400", "setting": "[1]; 20 mg/kg q6h, body weight 40 kg, MIC = 1 μg/mL", "value": 5.6, "unit": "µg/mL"}, {"measurement": "Trough Vancomycin Concentration achieving AUC24/MIC = 400", "setting": "[1]; 20 mg/kg q6h, body weight 40 kg, MIC = 2 μg/mL", "value": 22.6, "unit": "µg/mL"}, {"measurement": "Trough Vancomycin Concentration achieving AUC24/MIC = 400", "setting": "[1]; 30 mg/kg q8h, body weight 10 kg, MIC = 0.5 μg/mL", "value": 2.3, "unit": "µg/mL"}, {"measurement": "Trough Vancomycin Concentration achieving AUC24/MIC = 400", "setting": "[1]; 30 mg/kg q8h, body weight 10 kg, MIC = 1 μg/mL", "value": 9.3, "unit": "µg/mL"}, {"measurement": "Trough Vancomycin Concentration achieving AUC24/MIC = 400", "setting": "[1]; 30 mg/kg q8h, body weight 10 kg, MIC = 2 μg/mL", "value": 37.6, "unit": "µg/mL"}, {"measurement": "Trough Vancomycin Concentration achieving AUC24/MIC = 400", "setting": "[1]; 30 mg/kg q8h, body weight 20 kg, MIC = 0.5 μg/mL", "value": 2.0, "unit": "µg/mL"}, {"measurement": "Trough Vancomycin Concentration achieving AUC24/MIC = 400", "setting": "[1]; 30 mg/kg q8h, body weight 20 kg, MIC = 1 μg/mL", "value": 8.0, "unit": "µg/mL"}, {"measurement": "Trough Vancomycin Concentration achieving AUC24/MIC = 400", "setting": "[1]; 30 mg/kg q8h, body weight 20 kg, MIC = 2 μg/mL", "value": 32.4, "unit": "µg/mL"}, {"measurement": "Trough Vancomycin Concentration achieving AUC24/MIC = 400", "setting": "[1]; 30 mg/kg q8h, body weight 40 kg, MIC = 0.5 μg/mL", "value": 1.5, "unit": "µg/mL"}, {"measurement": "Trough Vancomycin Concentration achieving AUC24/MIC = 400", "setting": "[1]; 30 mg/kg q8h, body weight 40 kg, MIC = 1 μg/mL", "value": 6.1, "unit": "µg/mL"}, {"measurement": "Trough Vancomycin Concentration achieving AUC24/MIC = 400", "setting": "[1]; 30 mg/kg q8h, body weight 40 kg, MIC = 2 μg/mL", "value": 24.7, "unit": "µg/mL"}, {"measurement": "Exponent of trough concentration", "setting": "[1]; AUC24 regression equation, (Ctr/7)^x, 365 troughs, 238 subjects", "value": 0.495}, {"measurement": "Additive shift for dose frequency < 8 hours", "setting": "[1]; [4]", "value": 54.9}, {"measurement": "Slope of (DOSE [mg] - 500)", "setting": "[1]; [4]", "value": 0.0894}, {"measurement": "Vc reported by Downes et al", "setting": "[2]", "value": 2.59, "unit": "L"}, {"measurement": "Vp reported by Downes et al", "setting": "[2]", "value": 5.74, "unit": "L"}, {"measurement": "half-life (model-predicted, terminal)", "setting": "[3]", "value": 6, "unit": "h"}]}
